Key:
Assay type in all cases: in vivo
[1] = vasodilatation / acceleration of microcirculation
From the text: (§1) This acceleration of microcirculation has many positive benefits.

wound healing = experiment: wound healing
From the text: as §1

hypertension = conditions: encapsulated
anti-inflammatory = conditions: in all forms
pain relief = conditions: wounds such as burns and skin lesions
prostate = conditions: swollen prostate

For “lithio-arginino-glycino-parabenzene-fulvate [Li-TAFA]”, which “vasodilatation qualities / acceleration of microcirculation” value ([1]; used topically or internally) is on record?
The value was “exhibited vasodilatation qualities”.

What about the toxic side effects ([1]; used topically or internally to accelerate microcirculation) of the same substance?
Its toxic side effects is “without toxic side effects”.

What about the “healing of wounds, burns and chronic lesions” value (wound healing; lesions healed: 3rd degree radiation burns, squamous and basal cell carcinoma, psoriasis, venous stasis ulcers, decubitus ulcers, deep surgical wounding, herpes) of the same substance?
The value was “exhibited the ability to aid and accelerate the healing of wounds, burns (of all degrees) and several types of chronic lesions”.

And the scar formation (wound healing; radiation burns of the 3rd degree)?
The scar formation was “complete suppression of scar formation”.

What about the reduction of hypertension (hypertension) of the same substance?
Its reduction of hypertension is “demonstrated the ability to reduce hypertension”.

What about the toxic side effects (hypertension) of the same substance?
Its toxic side effects is “without toxic side effects”.

And the “reduction of inflammation and of resulting discomfort” value (anti-inflammatory)?
Its value is “shown the ability to reduce inflammation and control the discomfort resulting from inflammation”.

What about the pain relief (pain relief) of the same substance?
Its pain relief is “demonstrated substantial pain relief, without diminishing topical sensation”.

And the prostate size (prostate)?
The prostate size was “demonstrated the ability to shrink a swollen prostate to normal size”.

— patent publication US20130109636A1, “TRI-AMINO RELEASING FULVATE” (priority 2011, published 2013)
